How the values were obtained:
[1] = system: acetylcholinesterase; experiment: ex vivo inhibition acetylcholinesterase assay (modified Ellman); format: in vivo, male Wistar rats
[2] = molecular target: T1, acetylcholinesterase (Rattus norvegicus, UniProt P37136); experiment: in vitro inhibition of acetylcholinesterase assay (modified Ellman); format: biochemical, Male Wistar rat (corpora striata homogenate)
T1 construct: corpora striata dissected free, weighed and homogenized in 19 volumes; from tissue; host or cells: corpora striata of male Wistar rats, crude homogenate
T1 sequence (P37136 32-614): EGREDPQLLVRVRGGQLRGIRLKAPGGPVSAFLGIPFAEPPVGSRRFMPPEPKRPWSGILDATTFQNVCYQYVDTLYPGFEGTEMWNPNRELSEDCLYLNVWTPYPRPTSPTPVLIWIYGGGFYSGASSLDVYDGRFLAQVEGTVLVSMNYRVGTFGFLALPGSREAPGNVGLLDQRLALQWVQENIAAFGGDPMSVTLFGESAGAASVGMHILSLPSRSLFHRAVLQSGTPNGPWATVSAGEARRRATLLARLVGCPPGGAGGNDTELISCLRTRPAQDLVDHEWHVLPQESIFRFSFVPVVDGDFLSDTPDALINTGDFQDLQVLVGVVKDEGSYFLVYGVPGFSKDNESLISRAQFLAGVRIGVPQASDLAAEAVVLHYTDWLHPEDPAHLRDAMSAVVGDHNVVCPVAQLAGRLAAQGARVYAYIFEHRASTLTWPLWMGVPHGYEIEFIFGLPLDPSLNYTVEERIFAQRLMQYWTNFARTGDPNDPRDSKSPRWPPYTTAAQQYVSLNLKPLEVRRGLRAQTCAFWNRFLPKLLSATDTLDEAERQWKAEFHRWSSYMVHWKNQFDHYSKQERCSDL
Procedure: In this assay, a modification of a test described by G. L. Ellman, et al., Biochemical Pharmacology, 7, 88 (1961), the following reagents are prepared and employed:
1.0.05M Phosphate Buffer (pH 7.2)
A solution of monobasic sodium phosphate monohydrate (6.85 g) in distilled water (100 ml) is added to a solution of dibasic sodium phosphate heptahydrate (13.4 g) and distilled water (100 ml) until a pH of 7.2 was attained. The solution was diluted 1 to 10 with distilled water.
The 0.05M Phosphate Buffer (pH 7.2) was added to acetylthiocholine (198 mg) to a total volume of 100 ml, i.e., a quantity sufficient (gs) to 100 ml.
3. 5,5-Dithiobisnitrobenzoic acid in Buffer
The 0.05M Phosphate Buffer (pH 7.2) was added to 5,5-dithiobisnitrobenzoic acid to a total volume of 100 ml, i.e., a quantity sufficient (gs) to 100 ml.
4. Stock Solution of Drug
A 2 millimolar stock solution of the test drug is prepared in a quantity sufficient of either acetic acid or dimethyl sulfoxide to volume with 5,5-Dithiobisnitrobenzoic Acid in Buffer. Stock Solution of Drug is serially diluted (1:10) so that the final cuvette concentration is 10^-4 molar.
Male Wistar rates are decapitated, brains rapidly removed, corpora striata dissected free, weighed and homogenized in 19 volumes (approximately 7 mg protein/ml) of 0.05M phosphate Buffer (pH 7.2) using a Potter-Elvehjem homogenizer. A 25 μl aliquot of this suspension is added to 1 ml of the vehicle or various concentrations of the test drug and preincubated for 10 minutes at 37° C. Enzyme activity is measured with a Beckman DU-50 spectrophotometer with the following software and instrument settings:
1. Kinetics Soft-Pac™ Module #598273;
6. Cuvettes--2 ml cuvettes using auto 6-sampler;
7. Blank--1 for each substrate concentration;
8. Interval time--15 seconds (15 or 30 seconds for kinetics);
9. Total time--5 minutes (5 or 10 minutes for kinetics);
14 12. Slope--increasing;
13. Results--yes (gives slope); and
Reagents are added to the blank and sample cuvettes as follows:
1. Blank: 0.8 ml 5,5-Dithiobisnitrobenzoic Acid 0.8 ml Substrate in Buffer
2. Control: 0.8 ml 5,5-Dithiobisnitrobenzoic Acid/Enzyme 0.8 ml Substrate in Buffer
3. Drug: 0.8 ml 5,5-Dithiobisnitrobenzoic Acid/Drug/Enzyme 0.8 ml Substrate in Buffer
Blank values are determined for each run to control for non-enzymatic hydrolysis of substrate and these values are automatically subtracted by the Kindata program available on kinetics soft-pac module. This program also calculates the rate of absorbance change for each cuvette.
Substrate concentration is 10 millimolar diluted 1:2 in assay yielding final concentration of 5 millimolar. 5,5-Dithiobisnitrobenzoic acid concentration is 0.5 millimolar yielding 0.25 millimolar final concentration. [formula]
IC50 values are calculated from log-probit analysis

Row | Compound | IC50 [2] | further results
1 | CNC(=O)Oc1cccc(C2CCCN2CCc2ccccc2)c1 (stereo not shown) [3-[1-(2-Phenylethyl)-2-pyrrolidinyl]phenyl methylcarbamate] | – | Inhibition of Acetylcholinesterase Activity Percent Inhibition @ 1 hr ([1]; 10 mg/kg per os, forebrain): 25%
2 | CNC(=O)Oc1cccc(C2CCCN2Cc2cccnc2)c1 (stereo not shown) [3-[1-(3-Pyridinylmethyl)-2-pyrrolidinyl]phenyl methylcarbamate] | – | Inhibition of Acetylcholinesterase Activity Percent Inhibition @ 1 hr ([1]; 10 mg/kg per os, forebrain): 51%
3 | O=C(Oc1cccc(C2CCCN2Cc2ccncc2)c1)N1CCc2ccccc2C1 (stereo not shown) [3-[1-(4-Pyridinylmethyl)-2-pyrrolidinyl]phenyl 3,4-dihydro-2(1H)-isoquinoline carbamate hemifumarate] | 568 nM | –
4 | CNC(=O)Oc1cccc(C2CCCN2Cc2ccncc2)c1 (stereo not shown) [3-[1-(4-Pyridinylmethyl)-2-pyrrolidinyl]phenyl methylcarbamate] | 24.4 nM | Inhibition of Acetylcholinesterase Activity Percent Inhibition @ 1 hr ([1]; 10 mg/kg per os, striatum): 80%
5 | CNC(=O)Oc1cccc(C2CCC(=O)N2Cc2ccncc2)c1 (stereo not shown) [3-[1-((4-Pyridinyl)methyl)-5-oxo-2-pyrrolidinyl]phenyl methylcarbamate hemifumarate] | 1440 nM | –
6 | CCN1CCCC1c1cccc(OC(=O)NC)c1 (stereo not shown) [3-[1-Ethyl-2-pyrrolidinyl]phenyl methylcarbamate] | – | Inhibition of Acetylcholinesterase Activity Percent Inhibition @ 1 hr ([1]; 1 mg/kg per os, forebrain): 73%
7 | CNC(=O)Oc1cccc(C2CCCN2CCN2CCOCC2)c1 (stereo not shown) [3-{1-[2-(4-Morpholinyl)ethyl]-2-pyrrolidinyl}phenyl methylcarbamate bis-fumarate] | 529 nM | –
8 | CNC(=O)Oc1cccc(C2CCC(=O)N2CCN2CCOCC2)c1 (stereo not shown) [3-{1-[2-(4-Morpholinyl)ethyl]-5-oxo-2-pyrrolidinyl}phenyl methylcarbamate] | 18700 nM | –
9 | CNC(=O)Oc1ccc2c(c1)[C@]1(C)CCN(C)[C@@H]1N2C [physostigmine, reference compound] | – | Inhibition of Acetylcholinesterase Activity Percent Inhibition @ 1 hr ([1]; 0.3 mg/kg intraperitoneal, forebrain): 27%

Source: patent US5405845A, “(Pyrrolidinyl)phenyl carbamate derivatives and use” (priority 1994, dated 1995)
